# Source: PubChem BioAssay AID1963964 (Molecular Pharmacology Branch, DTP, NCI, 2024)
# System: 997726-040-R-J2-PDC tumor spheroids, viability
# Assay: Anticancer human tumor 997726-040-R-J2-PDC patient-derived squamous cell lung carcinoma cell line growth inhibition [PI3K]
# Conditions: spheroids with HUVEC and MSC; for IC50: curve of first compound; for viability, T/C: stronger effect = lower value
# Procedure, shortened: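 Stroma-containing spheroids: tumor line, pooled-donor HUVEC, hMSC. Treatments: targeted agents with PI3K inhibitors. Dosing: clinically relevant, half-log spacing, 10 microM ceiling without known Cmax. Read-out: cell viability.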
# [1] = second compound 0.00316 µM, first compound 0.000316 µM
# [2] = second compound 0.00316 µM, first compound 0.001 µM
# [3] = second compound 0.00316 µM, first compound 0.00316 µM
# [4] = second compound 0.00316 µM, first compound 0.01 µM
# [5] = second compound 0.00316 µM, first compound 0.0316 µM
# [6] = second compound 0.00316 µM, first compound 0.1 µM
# [7] = second compound 0.01 µM, first compound 0.000316 µM
# [8] = second compound 0.01 µM, first compound 0.001 µM
# [9] = second compound 0.01 µM, first compound 0.00316 µM
# [10] = second compound 0.01 µM, first compound 0.01 µM
# [11] = second compound 0.01 µM, first compound 0.0316 µM
# [12] = second compound 0.01 µM, first compound 0.1 µM
# [13] = second compound 0.0316 µM, first compound 0.000316 µM
# [14] = second compound 0.0316 µM, first compound 0.001 µM
# [15] = second compound 0.0316 µM, first compound 0.00316 µM
# [16] = second compound 0.0316 µM, first compound 0.01 µM
# [17] = second compound 0.0316 µM, first compound 0.0316 µM
# [18] = second compound 0.0316 µM, first compound 0.1 µM
# [19] = second compound 0.1 µM, first compound 0.000316 µM
# [20] = second compound 0.1 µM, first compound 0.001 µM
# [21] = second compound 0.1 µM, first compound 0.00316 µM
# [22] = second compound 0.1 µM, first compound 0.01 µM
# [23] = second compound 0.1 µM, first compound 0.0316 µM
# [24] = second compound 0.1 µM, first compound 0.1 µM
# [25] = second compound 0.316 µM, first compound 0.000316 µM
# [26] = second compound 0.316 µM, first compound 0.001 µM
# [27] = second compound 0.316 µM, first compound 0.00316 µM
# [28] = second compound 0.316 µM, first compound 0.01 µM
# [29] = second compound 0.316 µM, first compound 0.0316 µM
# [30] = second compound 0.316 µM, first compound 0.1 µM
# [31] = second compound 1 µM, first compound 0.000316 µM
# [32] = second compound 1 µM, first compound 0.001 µM
# [33] = second compound 1 µM, first compound 0.00316 µM
# [34] = second compound 1 µM, first compound 0.01 µM
# [35] = second compound 1 µM, first compound 0.0316 µM
# [36] = second compound 1 µM, first compound 0.1 µM
# [37] = second compound 0.00316 µM, first compound 0.316 µM
# [38] = second compound 0.00316 µM, first compound 1 µM
# [39] = second compound 0.00316 µM, first compound 3.16 µM
# [40] = second compound 0.00316 µM, first compound 10 µM
# [41] = second compound 0.01 µM, first compound 0.316 µM
# [42] = second compound 0.01 µM, first compound 1 µM
# [43] = second compound 0.01 µM, first compound 3.16 µM
# [44] = second compound 0.01 µM, first compound 10 µM
# [45] = second compound 0.0316 µM, first compound 0.316 µM
# [46] = second compound 0.0316 µM, first compound 1 µM
# [47] = second compound 0.0316 µM, first compound 3.16 µM
# [48] = second compound 0.0316 µM, first compound 10 µM
# [49] = second compound 0.1 µM, first compound 0.316 µM
# [50] = second compound 0.1 µM, first compound 1 µM
# [51] = second compound 0.1 µM, first compound 3.16 µM
# [52] = second compound 0.1 µM, first compound 10 µM
# [53] = second compound 0.316 µM, first compound 0.316 µM
# [54] = second compound 0.316 µM, first compound 1 µM
# [55] = second compound 0.316 µM, first compound 3.16 µM
# [56] = second compound 0.316 µM, first compound 10 µM
# [57] = second compound 1 µM, first compound 0.316 µM
# [58] = second compound 1 µM, first compound 1 µM
# [59] = second compound 1 µM, first compound 3.16 µM
# [60] = second compound 1 µM, first compound 10 µM
# 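Note: spheroids exposed to compounds for seven days before readout.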
structure (smiles),measurement,setting,value
CC(=O)c1c(C)c2cnc(Nc3ccc(N4CCNCC4)cn3)nc2n(C2CCCC2)c1=O + COc1c(OCCCN2CCOCC2)ccc2c3n(c(=NC(=O)c4cnc(N)nc4)nc12)CCN3,IC50,second compound 0.00316 µM,> 100 nM
same,IC50,second compound 0.01 µM,15.6 nM
same,IC50,second compound 0.0316 µM,< 0.316 nM
same,IC50,second compound 0.1 µM,< 0.316 nM
same,IC50,second compound 0.316 µM,< 0.316 nM
same,IC50,second compound 1 µM,< 0.316 nM
same,"viability, T/C",[1],73%
same,"viability, T/C",[2],77.6%
same,"viability, T/C",[3],69.8%
same,"viability, T/C",[4],75%
same,"viability, T/C",[5],60.1%
same,"viability, T/C",[6],52.4%
same,"viability, T/C",[7],62.1%
same,"viability, T/C",[8],60.9%
same,"viability, T/C",[9],53.8%
same,"viability, T/C",[10],55.8%
same,"viability, T/C",[11],44.4%
same,"viability, T/C",[12],39.2%
same,"viability, T/C",[13],32.2%
same,"viability, T/C",[14],42.1%
same,"viability, T/C",[15],35.3%
same,"viability, T/C",[16],34.1%
same,"viability, T/C",[17],28.1%
same,"viability, T/C",[18],25.7%
same,"viability, T/C",[19],20.6%
same,"viability, T/C",[20],23.3%
same,"viability, T/C",[21],23.9%
same,"viability, T/C",[22],21%
same,"viability, T/C",[23],18.7%
same,"viability, T/C",[24],17.1%
same,"viability, T/C",[25],5.23%
same,"viability, T/C",[26],5.65%
same,"viability, T/C",[27],6.03%
same,"viability, T/C",[28],5.28%
same,"viability, T/C",[29],5.14%
same,"viability, T/C",[30],3.76%
same,"viability, T/C",[31],1.5%
same,"viability, T/C",[32],1.26%
same,"viability, T/C",[33],1.01%
same,"viability, T/C",[34],1.2%
same,"viability, T/C",[35],1.19%
same,"viability, T/C",[36],1.06%
CC(C)n1nc(-c2ccc3oc(N)nc3c2)c2c(N)ncnc21 + COc1c(OCCCN2CCOCC2)ccc2c3n(c(=NC(=O)c4cnc(N)nc4)nc12)CCN3,IC50,second compound 0.00316 µM,18.2 nM
same,IC50,second compound 0.01 µM,2.97 nM
same,IC50,second compound 0.0316 µM,< 0.316 nM
same,IC50,second compound 0.1 µM,< 0.316 nM
same,IC50,second compound 0.316 µM,< 0.316 nM
same,IC50,second compound 1 µM,< 0.316 nM
same,"viability, T/C",[1],74%
same,"viability, T/C",[2],76.6%
same,"viability, T/C",[3],70%
same,"viability, T/C",[4],61.1%
same,"viability, T/C",[5],39.9%
same,"viability, T/C",[6],16.4%
same,"viability, T/C",[7],57.2%
same,"viability, T/C",[8],57.9%
same,"viability, T/C",[9],45.5%
same,"viability, T/C",[10],42.2%
same,"viability, T/C",[11],33.2%
same,"viability, T/C",[12],13.1%
same,"viability, T/C",[13],32.4%
same,"viability, T/C",[14],35.5%
same,"viability, T/C",[15],32.5%
same,"viability, T/C",[16],29.6%
same,"viability, T/C",[17],23.7%
same,"viability, T/C",[18],5.54%
same,"viability, T/C",[19],25.5%
same,"viability, T/C",[20],22.1%
same,"viability, T/C",[21],21.3%
same,"viability, T/C",[22],16.3%
same,"viability, T/C",[23],9.54%
same,"viability, T/C",[24],2.12%
same,"viability, T/C",[25],5.5%
same,"viability, T/C",[26],4.4%
same,"viability, T/C",[27],4.05%
same,"viability, T/C",[28],2.91%
same,"viability, T/C",[29],1.89%
same,"viability, T/C",[30],1.02%
same,"viability, T/C",[31],1.83%
same,"viability, T/C",[32],1.51%
same,"viability, T/C",[33],1.18%
same,"viability, T/C",[34],1.56%
same,"viability, T/C",[35],1.91%
same,"viability, T/C",[36],0.84%
CCCS(=O)(=O)Nc1ccc(F)c(C(=O)c2c[nH]c3ncc(-c4ccc(Cl)cc4)cc23)c1F + COc1c(OCCCN2CCOCC2)ccc2c3n(c(=NC(=O)c4cnc(N)nc4)nc12)CCN3,IC50,second compound 0.00316 µM,6610 nM
same,IC50,second compound 0.01 µM,5360 nM
same,IC50,second compound 0.0316 µM,31.6 nM
same,IC50,second compound 0.1 µM,< 31.6 nM
same,IC50,second compound 0.316 µM,< 31.6 nM
same,IC50,second compound 1 µM,< 31.6 nM
same,"viability, T/C",[5],68.1%
same,"viability, T/C",[6],91.1%
same,"viability, T/C",[37],101%
same,"viability, T/C",[38],114%
same,"viability, T/C",[39],136%
same,"viability, T/C",[40],20.7%
same,"viability, T/C",[11],52.6%
same,"viability, T/C",[12],70.3%
same,"viability, T/C",[41],69.6%
same,"viability, T/C",[42],76%
same,"viability, T/C",[43],94%
same,"viability, T/C",[44],23.2%
same,"viability, T/C",[17],39.5%
same,"viability, T/C",[18],41.8%
same,"viability, T/C",[45],44.2%
same,"viability, T/C",[46],49.9%
same,"viability, T/C",[47],57.1%
same,"viability, T/C",[48],19.6%
same,"viability, T/C",[23],24%
same,"viability, T/C",[24],24.6%
same,"viability, T/C",[49],25.3%
same,"viability, T/C",[50],28.4%
same,"viability, T/C",[51],28%
same,"viability, T/C",[52],16.5%
same,"viability, T/C",[29],5.93%
same,"viability, T/C",[30],6.12%
same,"viability, T/C",[53],5.74%
same,"viability, T/C",[54],7.01%
same,"viability, T/C",[55],8.12%
same,"viability, T/C",[56],7.64%
same,"viability, T/C",[35],1.54%
same,"viability, T/C",[36],1.08%
same,"viability, T/C",[57],1.77%
same,"viability, T/C",[58],1.68%
same,"viability, T/C",[59],2.43%
same,"viability, T/C",[60],1.82%
CNC(=O)c1ccc(N2C(=S)N(c3ccc(C#N)c(C(F)(F)F)c3)C(=O)C2(C)C)cc1F + COc1c(OCCCN2CCOCC2)ccc2c3n(c(=NC(=O)c4cnc(N)nc4)nc12)CCN3,IC50,second compound 0.00316 µM,> 10000 nM
same,IC50,second compound 0.01 µM,> 10000 nM
same,IC50,second compound 0.0316 µM,< 31.6 nM
same,IC50,second compound 0.1 µM,< 31.6 nM
same,IC50,second compound 0.316 µM,< 31.6 nM
same,IC50,second compound 1 µM,< 31.6 nM
same,"viability, T/C",[5],73.4%
same,"viability, T/C",[6],81.8%
same,"viability, T/C",[37],70.3%
same,"viability, T/C",[38],76.1%
same,"viability, T/C",[39],77.7%
same,"viability, T/C",[40],68.2%
same,"viability, T/C",[11],66.2%
same,"viability, T/C",[12],61.2%
same,"viability, T/C",[41],54.8%
same,"viability, T/C",[42],54.8%
same,"viability, T/C",[43],56.4%
same,"viability, T/C",[44],50%
same,"viability, T/C",[17],38.2%
same,"viability, T/C",[18],40.2%
same,"viability, T/C",[45],35.9%
same,"viability, T/C",[46],36.6%
same,"viability, T/C",[47],31.1%
same,"viability, T/C",[48],30.9%
same,"viability, T/C",[23],24.3%
same,"viability, T/C",[24],27.4%
same,"viability, T/C",[49],21.6%
same,"viability, T/C",[50],24.9%
same,"viability, T/C",[51],20.5%
same,"viability, T/C",[52],22.4%
same,"viability, T/C",[29],5.92%
same,"viability, T/C",[30],6.55%
same,"viability, T/C",[53],5.84%
same,"viability, T/C",[54],6.05%
same,"viability, T/C",[55],6.82%
same,"viability, T/C",[56],4.31%
same,"viability, T/C",[35],1.55%
same,"viability, T/C",[36],1.44%
same,"viability, T/C",[57],1.25%
same,"viability, T/C",[58],1.13%
same,"viability, T/C",[59],1.39%
same,"viability, T/C",[60],1.47%
